{"source": "paper PMC5586502", "about": "(Bioorganic & medicinal chemistry letters, 2017)", "tested_on": "COX-1/2 (mixed COX-1 and COX-2)", "assay": "COX", "type": "biochemical, ovine/human", "conditions": "read-out: IC50 against COX-1/2; suggested from ~37% inhibition at 100 µM", "data": [{"smiles": "COc1ccc(N(Nc2ccc(Br)cc2)c2ccccc2N(Nc2ccc(Br)cc2)c2ccccc2OC)cc1", "note": "[Compound 6]", "values": [{"measurement": "IC50", "value": "> 100", "unit": "µM"}]}]}
